Earlier results, collected in patent US20220082565A1, “THE FGF19-CHOLESTYRAMINE (F-CME) TEST AS A TWO-STAGE METHOD FOR ROUTINE CANCER SCREENING” (UNIVERSITY OF CENTRAL FLORIDA RESEARCH FOUNDATION, INC., priority 2020, published 2022).

Tested on: FGF19 transcripts
Conditions: physiological concentrations of bile acids, explants of ileal mucosa

CC(CCC(=O)NCC(=O)O)C1CCC2C3C(O)CC4CC(O)CCC4(C)C3CCC12C (centres unmarked) [glycochenodeoxycholic acid]
stimulation of human FGF19 transcripts: approximately 300 fold

C[C@H](CCC(=O)O)[C@H]1CC[C@H]2[C@@H]3[C@H](O)C[C@@H]4C[C@H](O)CC[C@]4(C)[C@H]3CC[C@]12C [chenodeoxycholic acid]
stimulation of human FGF19 transcripts: approximately 300 fold
